Data as given in paper PMC8042770, “Odorant Receptors for Detecting Flowering Plant Cues Are Functionally Conserved across Moths and Butterflies” (Molecular Biology and Evolution, 2020).

How the values were obtained:
EsemOR19 = assay: Xenopus oocyte voltage clamp of EsemOR19; type: cell-based, Eriocrania semipurpurella; settings: 10^−4 M
Text: (§1) We also examined the response profile of EsemOR19 from E. semipurpurella, an OR that falls close to the HarmOR42-defined clade but that is not considered as a HarmOR42 ortholog. […] We also characterized the function of RnubOR13 from R. nubila (Trichoptera), a species from a sister order of Lepidoptera. […] Unfortunately, the putative E. semipurpurella OR that would consist of EsemOR34 + 35 and that falls at the base of the HarmOR42 clade could not be tested as it is incomplete.
Full-length coding sequences of 45 ORs (including Orco) of H. armigera, and OR42 and Orco orthologs in B. mori, H. assulta, G. molesta, and M. separate were amplified from the antennal cDNA of each species adults by PCR with specific primer pairs of each gene. […]
(§2) Functional characterization of individual ORs was performed by heterologous expression in Xenopus oocytes combined with a two-electrode voltage-clamp system ([Wang et al. 2010]). […] After incubation in nutrient solution at 18 °C for 3–5 days, the response profile of each oocyte to multiple plant odorants was recorded via a two-electrode voltage clamp (OC-725C oocyte clamp, Warner Instruments, Hamden, CT) at a holding potential of −80 mV. Data were acquired by using a Digidata 1440 A and were analyzed by pCLAMP 10.2 software (Axon Instruments Inc., Union City, CA). […]

H. armigera moths = assay: Two-choice olfactometer behavioral assay, adult moths; type: in vivo, Helicoverpa armigera; settings: females and males, 0.01 mg PAA or 50 μl 0.1% IAC, 10 h
Description: In a first step, we tested the attractiveness of PAA and a commercial mix of floral attractants, which takes PAA as its principal component (IAC) ([Cork 2016]; [Whitfield et al. 2019]), to H. armigera moths using a two-choice behavioral assay in a choice box (fig. 6A).
For adults, behavioral experiments were performed in a two-choice olfactometer according to a previous study with some modifications ([Del Socorro et al. 2010]). The olfactometer apparatus consisted of a main-chamber (60 cm × 30 cm × 25 cm) and two-choice subchambers under the main-chamber (20 cm × 15 cm × 25 cm) (fig. 6A). A metal gauze funnel (10 cm diameter) was inserted between the main-chamber and the subchambers. A hole at the bottom of the funnel allowed the moth to enter the subchamber. Clean humidified air flows (15 l/min) entered each subchamber and were exhausted by an exhaust fan. All the experiments were performed during the moth scotophase at 27 ± 1 °C. […] After 10 h, the number of moths in each subchamber was recorded. […] A selection ratio (SR) was calculated using the formula: SR = T/(T + C), where T represents the number of moths that entered the test subchamber and C represents the number of moths that entered the control subchamber. […] A quantity of 0.01 mg PAA was applied. […] The results were statistically analyzed using a χ^2 test.

HarmOR59 = HarmOR59 (Helicoverpa armigera, UniProt A0A7T3KAU6); assay: Xenopus oocyte two-electrode voltage clamp, HarmOR59 + Orco; type: cell-based
Sequence of HarmOR59 (A0A7T3KAU6 entry or part of it): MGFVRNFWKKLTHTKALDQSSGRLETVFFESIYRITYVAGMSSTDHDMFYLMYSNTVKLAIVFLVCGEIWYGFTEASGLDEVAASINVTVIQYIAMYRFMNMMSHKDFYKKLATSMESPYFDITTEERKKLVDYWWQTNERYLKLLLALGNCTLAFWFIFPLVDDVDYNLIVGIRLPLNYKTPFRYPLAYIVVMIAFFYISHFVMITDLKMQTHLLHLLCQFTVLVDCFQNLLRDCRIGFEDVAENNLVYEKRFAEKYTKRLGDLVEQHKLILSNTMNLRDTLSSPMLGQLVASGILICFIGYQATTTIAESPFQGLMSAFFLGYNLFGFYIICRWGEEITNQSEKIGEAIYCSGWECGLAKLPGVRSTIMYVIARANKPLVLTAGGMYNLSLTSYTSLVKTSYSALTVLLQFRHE
Description: In order to expand our analysis on the response properties of HarmORs, we conducted dose–response analyses for the 28 functional HarmORs. […] Six HarmORs (OR3, 22, 48, 50, 56, and 66) could not be activated by any ligand at 10^−5 M. For the other 22 HarmORs, dose–response curves were generated and EC50 values of their major ligands were calculated (fig. 2A and supplementary table S2, Supplementary Material online). The HarmOR repertoire was highly efficient in terpene detection, since the lowest EC50 values were obtained for such compounds. Many of these terpenes have been proposed to be defensive chemicals of plants. […] DMNT is also one of the oviposition deterring compounds found in larval frass of some Lepidoptera species such as S. littoralis ([Anderson et al. 1993]).
(§3) Functional characterization of individual ORs was performed by heterologous expression in Xenopus oocytes combined with a two-electrode voltage-clamp system ([Wang et al. 2010]). Briefly, the full-length gene of each OR and Orco were subcloned into the eukaryotic expression vector pT7TS. cRNAs were generated from linearized expression vectors using the mMESSAGE mMACHINE T7 kit (Ambion, Austin, TX). Then, the cRNA mixture of ORx and Orco (27.6 ng each) was injected (Nanoliter 2010, WPI Inc., Sarasota, FL) into oocytes (stage V–VII). The respective Orcos of different species were used for functional studies of OR42 orthologs except for the four butterfly species (V. tameamea, P. xuthus, D. plexippus, and P. rapae), in which we used the Orco from P. xuthus. After incubation in nutrient solution at 18 °C for 3–5 days, the response profile of each oocyte to multiple plant odorants was recorded via a two-electrode voltage clamp (OC-725C oocyte clamp, Warner Instruments, Hamden, CT) at a holding potential of −80 mV. Data were acquired by using a Digidata 1440 A and were analyzed by pCLAMP 10.2 software (Axon Instruments Inc., Union City, CA).
(§4) Stock solutions of each odorant were prepared at 1 M using DMSO as a solvent, and each odorant was diluted in 1× Ringer’s solution to the indicated concentrations for electrophysiological recording. For functional screening of each HarmOR, a panel of 67 odorants belonging to three types of chemical classes: terpenes, aromatics, and aliphatics (short-chain fatty acid) were used (supplementary table S1, Supplementary Material online). For functional studies of OR42 orthologs from different species, six odorants including PAA, benzaldehyde, (E)-2-hexen-1-al, cinnamaldehyde, 2-phenylethanol, and heptanal were used.

HarmOR repertoire = assay: Responses of the 28 functional HarmORs across odorant doses (PCA of oocyte currents); type: cell-based, Helicoverpa armigera; settings: odorant 10^−7 M
Text: Vectors quantifying the responses of the 28 ORs to each odorant were projected onto a 3D landscape. This 3D representation captured 78.34% (10^−4 M), 65.11% (10^−5 M), 68.89% (10^−6 M), and 84.52% (10^−7 M) of the variation in the original 28D data set across different odorant concentrations. […] In addition, the capacity of the H. armigera odor space was highly dependent on odorant concentration. As the concentrations of odorants decreased, their positions in the odor space converged, with the ability to discriminate different odorants diminishing.
as §3, §4
Graphs and data statistics of OR response spectra, dose responses, EAG, and behavioral experiments were generated by Prism 7 (GraphPad Software, La Jolla, CA). A heat map was generated in Excel 2010 (Microsoft Corporation, WA). […] For tuning breadth analysis, the kurtosis values (K) were calculated by SPSS 22 (SPSS Inc., Chicago, IL) and were used to define the tuning spectra width, where smaller K values represent broader tuning spectra (fig. 1B). […]

RnubOR13 = assay: Xenopus oocyte voltage clamp of RnubOR13; type: cell-based, Rhyacophila nubila; settings: test panel
Text: as §1
as §2, with “2010]). Briefly, the full-length gene of each OR and Orco were subcloned into the eukaryotic expression vector pT7TS. cRNAs were generated from linearized expression vectors using the mMESSAGE mMACHINE T7 kit (Ambion, Austin, TX).” for “2010]).”

Q: `O=CCc1ccccc1` [Phenylacetaldehyde] was tested. Which “response of EsemOR19” value (EsemOR19) did it give?
A: no response

Q: And the “attractiveness to wild-type moths vs solvent” value (H. armigera moths)?
A: more attractive to H. armigera moths than the solvent control, but the results were not statistically significant

Q: What about the EC50 (HarmOR59) of the same compound?
A: 6.97 µM

Q: And the “response of the HarmOR repertoire” value (HarmOR repertoire)?
A: still responded

Q: And the “response of RnubOR13” value (RnubOR13)?
A: activated neither
